Drawing on PubChem BioAssay AID977614 (Broad Institute, 2014), this text covers AC50 for 48 compounds.

Active and inactive are the calls of the source.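 How the source made its calls: active means parasite count per well reduced by over 3 SD from the mean, with host cell number above 80% of untreated; inactive means the rest.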

In the assay the test system is L. donovani amastigotes in THP-1 macrophages, DAPI imaging, 72 h. Kind of assay: L. donovani intracellular amastigote growth inhibitors, imaging, THP-1 host macrophages, single concentration (AID 977614).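 Further: signal is the parasite per host cell ratio from DAPI stained kinetoplasts and nuclei.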
Turning to `C[C@@H]1CN([C@@H](C)CO)C(=O)CCCn2nncc2CO[C@H]1CN(C)C(=O)Nc1ccc(-c2cccs2)cc1`, the AC50 was > 10 µM (inactive). Take `CCCC(=O)N1C[C@H]2[C@@H](c3ccccc31)[C@H](CO)N2C(=O)Nc1ccc(F)cc1`: the AC50 is > 10 µM (inactive). Next, `C[C@H](CO)N1C[C@H](C)[C@H](CN(C)C(=O)c2cc(-c3ccccc3)on2)OCc2cnnn2CCCC1=O`: > 10 µM (inactive); `CCCC#Cc1ccc([C@H]2[C@@H](CO)N(C(=O)NC(C)C)[C@H]2CNC(C)=O)cc1`: > 10 µM (inactive); `COc1ccc(C(=O)N2C[C@@H]3[C@H](c4ccccc42)[C@@H](CO)N3Cc2ccccc2Cl)cc1`: > 10 µM (inactive). Next, `CCCC(=O)N1C[C@@H]2[C@H](c3ccccc31)[C@H](CO)N2C(=O)Nc1ccc(F)cc1`: > 10 µM (inactive). On to `C[C@H](CO)N1C[C@H](C)[C@@H](CN(C)Cc2cccc3c2OCCCO3)OCc2cnnn2CCCC1=O`, for which the AC50 is > 10 µM (inactive).

Take `CC(=O)N1[C@@H](CO)[C@@H](c2ccccc2)[C@@H]1CN(C)S(=O)(=O)c1ccccc1`: the AC50 was > 10 µM (inactive). Turning to `CN(C)CC(=O)N1C[C@@H]2[C@H](c3ccccc31)[C@H](CO)N2C(=O)c1ccccn1`, the AC50 was > 10 µM (inactive). As to `C[C@@H]1CN([C@@H](C)CO)C(=O)CCCn2cc(nn2)CO[C@H]1CN(C)S(=O)(=O)c1ccc(-n2cccn2)cc1`, the AC50 was > 10 µM (inactive). As to `C[C@@H]1CN([C@H](C)CO)C(=O)CCCn2nncc2CO[C@@H]1CN(C)C(=O)c1ccc(N2CCN(C)CC2)cc1`, the AC50 is > 10 µM (inactive). `C[C@@H]1CN([C@@H](C)CO)C(=O)CCCn2nncc2CO[C@H]1CN(C)Cc1cccc2c1OCCCO2`: the AC50 is > 10 µM (inactive). On to `COCCN(C[C@H]1[C@H](c2ccccc2)[C@@H](CO)N1C(C)=O)C(=O)c1cccnc1`, for which the AC50 is > 10 µM (inactive). Next, `C[C@@H]1CN([C@@H](C)CO)C(=O)CCCn2cc(nn2)CO[C@@H]1CN(C)C(=O)Nc1cccc2ccccc12`: > 10 µM (inactive); `C[C@@H]1CN([C@H](C)CO)C(=O)CCCn2nncc2CO[C@@H]1CN(C)C(=O)Nc1cccc(Oc2ccccn2)c1`: > 10 µM (inactive); `C[C@@H]1CN([C@@H](C)CO)C(=O)CCCn2nncc2CO[C@H]1CN(C)Cc1cccc(C(F)(F)F)c1`: > 10 µM (inactive).

On to `Cc1noc(C)c1S(=O)(=O)N(C)C[C@H]1OCc2cnnn2CCCC(=O)N([C@@H](C)CO)C[C@H]1C`, for which the AC50 was > 10 µM (inactive). For `CCN(C[C@@H]1[C@@H](c2ccccc2)[C@@H](CO)N1C(C)=O)C(=O)NC1CCCC1`, the AC50 was > 10 µM (inactive). Consider `COCC(=O)N1[C@@H]2CN(C)c3ccccc3[C@@H]2[C@@H]1CO`, for which the AC50 was > 10 µM (inactive). On to `O=C(C1CCOCC1)N1C[C@@H]2[C@H](c3ccccc31)[C@@H](CO)N2C(=O)Nc1ccccc1F`, for which the AC50 is > 10 µM (inactive).

In the case of `CC(C)N(C[C@@H]1[C@H](c2ccccc2)[C@@H](CO)N1S(C)(=O)=O)C(=O)CN(C)C`, the AC50 is > 10 µM (inactive). Take `CN1[C@@H](CO)[C@@H]2c3ccccc3NC[C@@H]21`: the AC50 is > 10 µM (inactive). Next, `C[C@@H]1CN([C@@H](C)CO)C(=O)CCCn2nncc2CO[C@@H]1CN(C)C(=O)c1cc(-c2ccccc2)on1`: > 10 µM (inactive). Under `C[C@@H]1CN([C@H](C)CO)C(=O)CCCn2cc(nn2)CO[C@@H]1CN(C)C(=O)c1ccc(N2CCN(C)CC2)cc1` stands > 10 µM (inactive). On to `O=C(Nc1cccc(F)c1)N1C[C@H]2[C@@H](c3ccccc31)[C@H](CO)N2C(=O)Cc1ccccn1`, for which the AC50 is > 10 µM (inactive). In the case of `C/C=C/c1ccc([C@H]2[C@@H](CO)N(C(C)=O)[C@@H]2CNC(=O)c2ccccc2)cc1`, the AC50 is > 10 µM (inactive). Next, `O=C(c1ccc2c(c1)OCO2)N1C[C@H]2[C@@H](c3ccccc31)[C@H](CO)N2Cc1cccnc1`: > 10 µM (inactive); `C/C=C/c1ccc([C@H]2[C@@H](CO)N(S(=O)(=O)CC)[C@@H]2CN(C)C(=O)CC)cc1`: > 10 µM (inactive). Next, `C/C=C/c1ccc([C@@H]2[C@@H](CN(C)C(C)=O)N(C(=O)NC(C)C)[C@H]2CO)cc1`: > 10 µM (inactive). Under `CNC[C@H]1OCc2cn(nn2)CCCC(=O)N([C@H](C)CO)C[C@@H]1C` stands > 10 µM (inactive); under `C[C@@H]1CN([C@H](C)CO)C(=O)CCCn2nncc2CO[C@@H]1CN(C)S(=O)(=O)c1ccc(Oc2ccccc2)nc1`, > 10 µM (inactive); under `CN1C[C@@H]2[C@H](c3ccccc31)[C@H](CO)N2S(=O)(=O)c1ccccc1`, > 10 µM (inactive). Turning to `O=C(c1ccccc1F)N1C[C@@H]2[C@H](c3ccccc31)[C@@H](CO)N2C(=O)Nc1ccccc1`, the AC50 was > 10 µM (inactive). `C[C@H](CO)N1C[C@H](C)[C@@H](CN(C)C(=O)Nc2ccnc(N3CCOCC3)c2)OCc2cnnn2CCCC1=O`: the AC50 was > 10 µM (inactive).

Consider `C[C@@H]1CN([C@H](C)CO)C(=O)CCCn2cc(nn2)CO[C@H]1CN(C)C(=O)Oc1ccc2ccccc2c1`, for which the AC50 is > 10 µM (inactive).

Consider `CCS(=O)(=O)N(C)C[C@@H]1N[C@H](CO)[C@@H]1c1ccc(-c2ccccc2F)cc1`, for which the AC50 is > 10 µM (inactive).

As for `C[C@@H]1CN([C@@H](C)CO)C(=O)CCCn2nncc2CO[C@@H]1CN(C)C(=O)c1ccc2ccn(C)c2c1`, the AC50 is > 10 µM (inactive). As for `C[C@H](CO)N1C[C@H](C)[C@@H](CN(C)C(=O)Nc2ccc3c(c2)OCO3)OCc2cn(nn2)CCCC1=O`, the AC50 was > 10 µM (inactive). For the compound `CCCNC(=O)N1[C@H](CO)[C@@H]2c3ccccc3N(C(=O)Nc3cccc(Cl)c3)C[C@@H]21`, the AC50 was > 10 µM (inactive).

With `C[C@@H]1CN([C@@H](C)CO)C(=O)CCCn2cc(nn2)CO[C@@H]1CN(C)C(=O)Oc1ccc2ccccc2c1`, the AC50 was > 10 µM (inactive). Take `C[C@H]1CN([C@@H](C)CO)C(=O)CCCn2nncc2CO[C@@H]1CN(C)C(=O)c1ccc2ccn(C)c2c1`: the AC50 is > 10 µM (inactive). Regarding `C[C@@H]1CN([C@H](C)CO)C(=O)CCCn2nncc2CO[C@@H]1CN(C)C(=O)Nc1ccccc1C(F)(F)F`, the AC50 is > 10 µM (inactive).

Regarding `C[C@@H]1CN([C@H](C)CO)C(=O)CCCn2cc(nn2)CO[C@@H]1CN(C)S(=O)(=O)c1ccc(-n2cccn2)cc1`, the AC50 is > 10 µM (inactive). Next, `CC(=O)N1[C@H](CO)[C@H]2c3ccccc3N(S(=O)(=O)c3ccccc3C)C[C@H]21`: > 10 µM (inactive); `C[C@@H]1CN([C@H](C)CO)C(=O)CCCn2nncc2CO[C@@H]1CN(C)Cc1ccccc1C(=O)O`: > 10 µM (inactive); `CC(C)NC(=O)N1[C@@H](CO)[C@@H]2c3ccccc3N(C)C[C@@H]21`: > 10 µM (inactive). On to `O=C(Nc1cccc(F)c1)N1C[C@H]2[C@@H](c3ccccc31)[C@@H](CO)N2C(=O)Cc1ccccn1`, for which the AC50 is > 10 µM (inactive). Next, `C/C=C/c1ccc([C@H]2[C@H](CO)N(C(C)=O)[C@H]2CNC(=O)c2ccccc2)cc1`: > 10 µM (inactive).

For orientation: AC50 means the midpoint of the concentration-response curve, whichever way the signal moves.
